# In US11827628B2, “Compositions and methods for inhibition of the JAK pathway” (Rigel Pharmaceuticals, Inc., priority 2005, dated 2023):
# Where a name gives a salt, the structure may show the parent alone. Read-outs that look alike come from different tables or passages of the source.
# Assays:
# [1] = tested on: IL-4 stimulated expression of CD23 in human Ramos B cells (JAK-1 and JAK-3); assay: Assay for Ramos B-Cell Line Stimulated with IL-4 (CD23 upregulation, FACS); assay type: cell-based; settings: read-out: IC50, Example 41
# In short: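 Steps: Ramos B cells are suspended in RPMI with 5% serum, exposed to compound for 1 h at 37 °C, stimulated with IL-4 (final 50 units/mL) for 20-24 h, stained for CD23 and analysed by flow cytometry. IC50 is calculated.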
# Primary human T-cells = assay: Primary Human T-Cell Proliferation Assay Stimulated with IL-2 (CellTiter-Glo); assay type: cell-based; settings: read-out: IC50, Example 42
# In short: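 Peripheral blood T-cells pre-activated with anti-CD3/anti-CD28 and IL-2 were washed free of IL-2, then cultured with compound plus IL-2 for 72 hours at 37° C, duplicate wells. Viability read as ATP by CellTiter-Glo luminescence; IC50 reported.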
# [2] = Homo sapiens, Ramos, Ramos B-cell line stimulated with IL-4, CD23 expression by FACS
# [3] = Homo sapiens, T-cell, primary human T-cell proliferation stimulated with IL-2
# [4] = Ramos B cells stimulated with IL-4, CD23 expression by FACS
# [5] = primary human T-cells stimulated with IL-2, proliferation
# [6] = Homo sapiens, Ramos, Ramos B cells stimulated with IL-4, CD23 expression by FACS
# [7] = Homo sapiens, T-cell, primary human T-cells stimulated with IL-2, proliferation
# [8] = Ramos B-cell line stimulated with IL-4, CD23 expression by FACS
# [9] = primary human T-cell proliferation stimulated with IL-2
molecule,measurement,setting,value
"Cc1ccc(Nc2ncc(F)c(Nc3ccc(Oc4ccncc4)cc3)n2)cc1S(N)(=O)=O [II-16, N2-(3-Aminosulfonyl-4-methylphenyl)-5-fluoro-N4-[4-(4-pyridyloxy)phenyl]-2,4-pyrimidinediamine]",IC50,[1]; [2],18300 nM
same,IC50,Primary human T-cells; [3],3720 nM
"Cc1ccc(Nc2ncc(F)c(Nc3ccc(Cn4ccnc4C)cc3)n2)cc1S(N)(=O)=O [III-91, N2-(3-Aminosulfonyl-4-methylphenyl)-5-fluoro-N4-[4-(2-methyl-1-imidazolylmethyl)phenyl]-2,4-pyrimidinediamine]",IC50,[1]; [4],143 nM
same,IC50,Primary human T-cells; [5],467 nM
"CC1(C)Oc2ccc(Nc3nc(Nc4cccc(S(N)(=O)=O)c4)ncc3N)cc2NC1=O [VII-39, 5-Amino-N2-(3-amionsulfonylphenyl)-N4-(2,2-dimethyl-3-oxo-4H-benz[1,4]oxazin-6-yl)-2,4-pyrimidinediamine]",IC50,[1]; [4],772 nM
same,IC50,Primary human T-cells; [5],919 nM
"CC1(C)Oc2cc(Nc3nc(Nc4cccc(S(N)(=O)=O)c4)ncc3F)cnc2NC1=O [VII-51, N2-(3-Aminosulfonylphenyl)-N4-[2,2-dimethyl-3-oxo-4H-5-pyrid[1,4]oxazin-7-yl]-5-fluoro-2,4-pyrimidinediamine]",IC50,[1]; [4],541 nM
same,IC50,Primary human T-cells; [5],1790 nM
"CC(C)(C)c1ccc(Nc2nc(Nc3cccc(S(N)(=O)=O)c3)ncc2F)cc1 [VI-35, N2-(3-Aminosulfonylphenyl)-N4-(4-tert-butylphenyl)-5-fluoro-2,4-pyrimidinediamine]",IC50,[1]; [6],158 nM
same,IC50,Primary human T-cells; [7],1260 nM
"NS(=O)(=O)c1cccc(Nc2ncc(F)c(Nc3cccc(OCc4cccnc4)c3)n2)c1 [Compound I-182, N2-(3-Aminosulfonylphenyl)-5-fluoro-N4-[3-(3-pyridinyl)methyleneoxyphenyl]-2,4-pyrimidinediamine]",IC50,[1]; [8],190 nM
same,IC50,Primary human T-cells; [9],1130 nM
"N#CCCc1ccc(Nc2nc(Nc3ccc(Cl)c(S(N)(=O)=O)c3)ncc2F)cc1 [III-13, N2-(3-Aminosulfonyl-4-chlorophenyl)-N4-[4-(2-cyanoethyl)phenyl]-5-fluoro-2,4-pyrimidinediamine]",IC50,[1]; [2],295 nM
same,IC50,Primary human T-cells; [3],701 nM
"NS(=O)(=O)c1cccc(Nc2ncc(F)c(Nc3ccc(-c4ccccn4)c(OCF)c3)n2)c1 [Compound I-169, N2-(3-Aminosulfonylphenyl)-5-fluoro-N4-[4-(2-pyridinyl)-3-fluoromethyleneoxyphenyl]-2,4-pyrimidinediamine]",IC50,[1]; [8],54.6 nM
same,IC50,Primary human T-cells; [9],137 nM
"Cc1cc(Nc2nc(Nc3ccc(C)c(S(N)(=O)=O)c3)ncc2F)ccc1NC(=O)CC#N [Compound I-81, N2-(3-Aminosulfonyl-4-methylphenyl)-5-fluoroN4-[3-methyl4-(N-cyanoacetyl)aminophneyl]-2,4-pyrimidinediamine]",IC50,[1]; [8],360 nM
same,IC50,Primary human T-cells; [9],957 nM
"NS(=O)(=O)c1cc(Nc2ncc(F)c(Nc3ccc(C(F)(F)F)c(Cl)c3)n2)ccc1Cl [VI-44, N2-(3-Aminosulfonyl-4-chlorophenyl)-N4-(3-chloro-4-trifluoromethyl-phenyl)-5-fluoro-2,4-pyrimidinediamine]",IC50,[1]; [6],429 nM
same,IC50,Primary human T-cells; [7],7310 nM
"Cc1ccc(Nc2ncc(F)c(Nc3cnc4ccccc4c3)n2)cc1S(N)(=O)=O [VII-65, N2-(3-Aminosulfonyl-4-methylphenyl)-5-fluoro-N4-(quinolin-3-yl)-2,4-pyrimidinediamine]",IC50,[1]; [6],385 nM
same,IC50,Primary human T-cells; [7],3060 nM
"NS(=O)(=O)c1cccc(Nc2ncc(F)c(Nc3ccc(Oc4ccncc4)cc3)n2)c1 [II-17, N2-(3-Aminosulfonylphenyl)-5-fluoro-N4-[4-(4-pyridyloxy)phenyl]-2,4-pyrimidinediamine]",IC50,[1]; [2],21200 nM
same,IC50,Primary human T-cells; [3],8210 nM
"C=CC(=O)NCc1ccc(Nc2nc(Nc3ccc(C)c(S(N)(=O)=O)c3)ncc2F)cc1 [III-46, N4-(4-Acrylamidomethylphenyl)-N2-(3-aminosulfonyl-4-methylphenyl)-5-fluoro-2,4-pyrimidinediamine]",IC50,[1]; [2],211 nM
same,IC50,Primary human T-cells; [3],1050 nM
"CCC(=O)NS(=O)(=O)c1cc(Nc2ncc(F)c(Nc3ccc(OCC#N)cc3)n2)ccc1C [Compound I-30, N4-(4-Cyanomethyleneoxy)phenyl-5-fluoro-N2-(4-methyl-3-propionylaminosulfonyl)phenyl-2,4-pyrimidinediamine]",IC50,[1]; [8],5430 nM
same,IC50,Primary human T-cells; [9],3570 nM
"N4-(4-Acetylthiomethylcarbonylphenyl)-N2-(4-aminosulfonylphenyl)-5-fluoro-2,4-pyrimidinediamine [IX-41]",IC50,[1]; [4],133 nM
same,IC50,Primary human T-cells; [5],6260 nM
"N2-(3-Aminosulfonyl-4-methoxy-5-methylphenyl)-N4-(4-chloro-3-trifluoromethyl-phenyl)-5-fluoro-2,4-pyrimidinediamine [VI-40]",IC50,[1]; [4],288 nM
same,IC50,Primary human T-cells; [5],1240 nM
"NS(=O)(=O)c1cccc(Nc2ncc(F)c(Nc3ccc(Cc4ccncc4)cc3)n2)c1 [III-73, N2-(3-Aminosulfonylphenyl)-5-fluoro-N4-[4-(4-pyridylmethyl)phenyl]-2,4-pyrimidinediamine Hydrochloride Salt]",IC50,"[1]; Ramos B-cell line stimulated with IL-4, CD23 expression by FACS, Hydrochloride Salt",131 nM
same,IC50,"Primary human T-cells; primary human T-cell proliferation stimulated with IL-2, Hydrochloride Salt",434 nM
"Cc1ccc(Nc2ncc(F)c(Nc3ccc(Cn4cncn4)cc3)n2)cc1S(N)(=O)=O [III-101, N2-(3-Aminosulfonyl-4-methylphenyl)-5-fluoro-N4-{4-[1-(1,2,4-thazolyl)methyl]phenyl}-2,4-pyrimidinediamine]",IC50,[1]; [4],240 nM
same,IC50,Primary human T-cells; [5],446 nM
"C#CCNS(=O)(=O)c1ccc(Nc2nc(Nc3cccc(S(N)(=O)=O)c3)ncc2F)cc1 [VI-75, N2-(3-Aminosulfonylphenyl)-5-fluoro-N4-[4-(prop-2-ynylaminosulfonyl)phenyl]-2,4-pyrimidinediamine]",IC50,[1]; [6],904 nM
same,IC50,Primary human T-cells; [7],929 nM
"Cc1cc(Nc2nc(Nc3ccc(S(C)(=O)=O)c(N)c3)ncc2F)ccc1OCc1ccccn1 [Compound I-168, N2-(3-Amino-4-methylsulfonylphenyl)-5-fluoro-N4-[(4-((pyridin-2-yl)methoxy)-3-methylphenyl)]-2,4-pyrimidinediamine]",IC50,[1]; [2],154 nM
same,IC50,Primary human T-cells; [3],1180 nM
"COc1cc(Nc2ncc(F)c(Nc3ccc(OC(C)(C)C#N)cc3)n2)ccc1S(N)(=O)=O [Compound I-77, N2-(4-Aminosulfonyl-3-methoxy)phenyl-N4-[4-(1-cyano-1-methyl)ethoxy]phenyl-5-fluoro-2,4-pyrimidinediamine]",IC50,[1]; [8],147 nM
same,IC50,Primary human T-cells; [9],1620 nM
"N2-(3-Aminosulfonyl-4-methylphenyl)-N4-(4-benzylphenyl)-5-fluoro-2,4-pyrimidinediamine [III-63]",IC50,[1]; [8],315 nM
same,IC50,Primary human T-cells; [9],1880 nM
"NS(=O)(=O)c1cc(Nc2ncc(F)c(Nc3ccc(Cl)c(Cl)c3)n2)ccc1Cl [VI-3, N2-(3-Aminosulfonyl-4-chlorophenyl)-N4-(3,4-dichlorophenyl)-5-fluoro-2,4-pyrimidinediamine]",IC50,[1]; [6],206 nM
same,IC50,Primary human T-cells; [7],8790 nM
"Cc1ccc(Nc2ncc(F)c(N[C@H]3[C@@H](C(N)=O)[C@@H]4C=C[C@H]3C4)n2)cc1S(N)(=O)=O [VII-82, (1R,2R,3S,4S)N4-(3-Aminocarbonylbicyclo[2.2.1]hept-5-en-2-yl)-N2-(3-aminosulfonyl-4-methylphenyl)-5-fluoro-2,4-pyrimidinediamine]",IC50,[1]; [6],313 nM
same,IC50,Primary human T-cells; [7],1080 nM
"Cc1ccc(Nc2ncc(F)c(Nc3ccc(-c4ccccn4)c(OCCl)c3)n2)cc1S(N)(=O)=O [Compound I-174, N2-(3-Aminosulfonyl-4-methylphenyl)-5-fluoro-N4-[4-(2-pyridinyl)-3-chloromethyleneoxyphenyl]-2,4-pyrimidinediamine]",IC50,[1]; [8],117 nM
same,IC50,Primary human T-cells; [9],1230 nM
"Cc1ccc(Nc2ncc(F)c(Nc3ccc(Cl)c(C(F)(F)F)c3)n2)cc1S(N)(=O)=O [VI-39, N2-(3-Aminosulfonyl-4-methyl-phenyl)-N4-(4-chloro-3-trifluoromethylphenyl)-5-fluoro-2,4-pyrimidinediamine]",IC50,[1]; [6],401 nM
same,IC50,Primary human T-cells; [7],3140 nM
"Cc1ccc(Nc2ncc(F)c(Nc3ccc(OCC(=O)N(C)C)cc3)n2)cc1S(N)(=O)=O [Compound I-130, N2-(3-Aminosulfonyl-4-methylphenyl)-N4-(4-dimethylaminocarbonylmethoxyphenyl)-5-fluoro-2,4-pyrimidinediamine]",IC50,[1]; [2],601 nM
same,IC50,Primary human T-cells; [3],1730 nM
"Cn1ccc(NC(=O)Cc2ccc(Nc3nc(Nc4cccc(S(N)(=O)=O)c4)ncc3F)cc2)n1 [III-50, N2-(3-Aminosulfonylphenyl)-5-fluoro-N-4-[4(1-methylpyrazolyl-3-aminocarbonylmethylene)phenyl]-2,4-pyrimidinediamine]",IC50,[1]; [8],306 nM
same,IC50,Primary human T-cells; [9],1970 nM
"CCNC(=O)NCc1cccc(Nc2nc(Nc3ccc(S(N)(=O)=O)cc3)ncc2F)c1 [III-116, N2-(4-aminosulfonyl)phenyl-N4-(3-ethylaminocarbonylaminomethyl)phenyl-5-fluoro-2,4-pyrimidinediamine]",IC50,[1]; [4],197 nM
same,IC50,Primary human T-cells; [5],3950 nM
"CNC(=O)COc1ccc(Nc2nc(Nc3ccc(S(N)(=O)=O)cc3)ncc2C)cc1F [Compound I-154, N2-(4-Aminosulfonylphenyl)-N4-(3-fluoro-4-methylaminocarbonylmethoxyphenyl)-5-methyl-2,4-pyrimidinediamine]",IC50,[1]; [2],276 nM
same,IC50,Primary human T-cells; [3],992 nM
